Patent US9775878B2, “Methods for treating bacterial infections using oritavancin and polymyxins” (The Medicines Company, priority 2013, dated 2017)
Read-outs that look alike come from different tables or passages of the source.

Legend:
[1] = system: Acinetobacter baumannii strains; experiment: Broth macrodilution MICs under conditions used for synergy time-kill assays; type: cell-based; details: for MIC: Acinetobacter baumannii, read-out: Broth macrodilution MICs
Description: (§1) Broth microdilution MIC testing (CLSI M07-A9) was performed on the Acinetobacter baumannii (AB) reference strain ATCC 19606 (obtained from ATCC) and 10 AB strains, including 8 MDRAB (resistant to ≧3 of the following: beta-lactams, gentamicin, fluoroquinolones and tetracycline; obtained from Eurofins Medinet Chantilly, Va.). The requirement of 0.002% polysorbate 80 (P-80) for testing oritavancin also necessitated the testing of COL in the presence of P80. Checkerboard assays were used to determine activity of antimicrobial combinations; fractional inhibitory concentration indices (FICI) were used to define synergy, indifference or antagonism. Broth macrodilution MICs were determined following conditions used for synergy time-kill assays. Synergy time-kill studies were performed following CLSI guidelines.
(§2) Minimum inhibitory concentrations (MICs). Broth microdilution MICs were determined according to CLSI (CLSI document M7-A9, 2013) guidelines with the exception that COL MICs were also determined in the presence of 0.002% polysorbate 80 (P80) since P80 was to be present in the combination tests because of its requirement for testing oritavancin. Broth macrodilution MICs were determined following conditions used for synergy time-kill assays.

[2] = system: Acinetobacter baumannii strains; experiment: Synergy time-kill assay; type: cell-based; details: concentration of the agent within the ORI+COL combination, ≧2 log CFU/mL decrease vs most active constituent at 24 h, 0.002% P80
Description: as §1
Time-kill assays followed CLSI guidelines (NCCLS, CLSI document M26-A2, 1999) with the exception that 96 deep-well plates were used. Exponential-phase bacteria were diluted to approximately 5×10^5 colony-forming units (CFU)/mL and exposed to ORI or COL alone, or in combination in CAMHB containing 0.002% P80. Bacteria were enumerated by serial dilution plating. To prevent drug carryover during serial dilution plating, aliquots of the drug-challenged culture were added to an equal volume of 25 mg/mL activated charcoal suspension. […] All experiments were repeated at least two times and a representative experiment is presented in the plots; data points are an average of duplicate CFU/mL determinations within an experiment.

[3] = system: Acinetobacter baumannii strains; experiment: Broth microdilution MIC of colistin in absence and presence of 0.002% polysorbate 80; type: cell-based; details: for Colistin MIC −P80: absence of polysorbate 80; for Colistin MIC +P80: presence of 0.002% polysorbate-80
Description: as §1, with “([…])” for “(AB) reference strain ATCC 19606 (obtained from ATCC)”
as §2

[4] = system: Acinetobacter baumannii strains; experiment: Broth macrodilution MICs under conditions used for synergy time-kill assays; type: cell-based
[5] = system: S. aureus (MSSA, MRSA, VRSA); details: within 15 minutes to 2 hours, MRSA and VRSA; cited from earlier work
[6] = strain 2691748 (Non-MDR), agent alone, time-kill conditions
[7] = strain 2691818 (Non-MDR), agent alone, time-kill conditions
[8] = strain 2691999 (MDR), agent alone, time-kill conditions
[9] = strain 2692406 (MDR), agent alone, time-kill conditions
[10] = strain 2692650 (MDR), agent alone, time-kill conditions
[11] = strain 2693922 (MDR), agent alone, time-kill conditions
[12] = strain 2694038 (MDR), agent alone, time-kill conditions
[13] = strain 2694224 (MDR), agent alone, time-kill conditions
[14] = strain 2694227 (MDR), agent alone, time-kill conditions

CCC(C)CCCC(=O)N[C@H](CCN)C(=O)N[C@H](C(=O)N[C@@H](CCN)C(=O)N[C@H]1CCNC(=O)[C@H]([C@@H](C)O)NC(=O)[C@H](CCN)NC(=O)[C@H](CCN)NC(=O)[C@H](CC(C)C)NC(=O)[C@@H](CC(C)C)NC(=O)[C@H](CCN)NC1=O)[C@@H](C)O (stereo in doubt) [COL, Colistin]
0.125 µg/mL: Colistin MIC +P80 ([3]; strain 2692406 (MDR)) | Colistin MIC +P80 ([3]; strain 2692650 (MDR)) | Colistin MIC +P80 ([3]; strain 2693922 (MDR)) | Colistin MIC +P80 ([3]; strain 2694227 (MDR))
0.25 µg/mL: MIC [1, 7] | MIC [1, 9] | MIC [1, 10] | Colistin MIC +P80 ([3]; strain 2691999 (MDR)) | Colistin MIC +P80 ([3]; strain 2692721 (MDR)) | Colistin MIC +P80 ([3]; strain 2694038 (MDR)) | Colistin MIC +P80 ([3]; strain 2694224 (MDR)) | Colistin MIC +P80 ([3]; strain ATCC 19609 (Non-MDR)) | MIC ([4]; ATCC19609, strain ATCC 19609 (Non-MDR), agent alone, time-kill conditions, read-out: Broth macrodilution MICs)
1 µg/mL: MIC [1, 8] | Concentrations that yielded synergy in time-kill ([2]; strain 2691748 (Non-MDR)) | Colistin MIC +P80 ([3]; strain 2691818 (Non-MDR)) | Colistin MIC −P80 ([3]; strain 2691999 (MDR)) | Colistin MIC −P80 ([3]; strain 2692721 (MDR)) | Colistin MIC −P80 ([3]; strain 2694038 (MDR)) | Colistin MIC −P80 ([3]; strain 2694224 (MDR)) | Colistin MIC −P80 ([3]; strain 2694227 (MDR)) | Colistin MIC −P80 ([3]; strain ATCC 19609 (Non-MDR))
16: Fold change in MIC (−P80/+P80) ([3]; strain 2692406 (MDR))
0.06 µg/mL: Concentrations that yielded synergy in time-kill ([2]; strain 2694038 (MDR)) | Concentrations that yielded synergy in time-kill ([2]; strain ATCC 19609 (Non-MDR))
2: Fold change in MIC (−P80/+P80) ([3]; strain 2691818 (Non-MDR))
0.12 µg/mL: MIC [1, 12] | Concentrations that yielded synergy in time-kill ([2]; strain 2691818 (Non-MDR)) | Concentrations that yielded synergy in time-kill ([2]; strain 2691999 (MDR)) | Concentrations that yielded synergy in time-kill ([2]; strain 2692406 (MDR)) | Concentrations that yielded synergy in time-kill ([2]; strain 2692650 (MDR)) | Concentrations that yielded synergy in time-kill ([2]; strain 2692721 (MDR)) | Concentrations that yielded synergy in time-kill ([2]; strain 2693922 (MDR)) | Concentrations that yielded synergy in time-kill ([2]; strain 2694224 (MDR)) | Concentrations that yielded synergy in time-kill ([2]; strain 2694227 (MDR))
2 µg/mL: Colistin MIC −P80 ([3]; strain 2691818 (Non-MDR)) | Colistin MIC −P80 ([3]; strain 2692406 (MDR))
0.5 µg/mL: MIC ([1]; strain 2692721 (MDR), agent alone, time-kill conditions) | MIC [1, 11] | MIC [1, 13] | MIC [1, 14] | Colistin MIC +P80 ([3]; strain 2691748 (Non-MDR)) | Colistin MIC −P80 ([3]; strain 2692650 (MDR)) | Colistin MIC −P80 ([3]; strain 2693922 (MDR))
4: Fold change in MIC (−P80/+P80) ([3]; strain 2691999 (MDR)) | Fold change in MIC (−P80/+P80) ([3]; strain 2692650 (MDR)) | Fold change in MIC (−P80/+P80) ([3]; strain 2692721 (MDR)) | Fold change in MIC (−P80/+P80) ([3]; strain 2693922 (MDR)) | Fold change in MIC (−P80/+P80) ([3]; strain 2694038 (MDR)) | Fold change in MIC (−P80/+P80) ([3]; strain 2694224 (MDR)) | Fold change in MIC (−P80/+P80) ([3]; strain ATCC 19609 (Non-MDR))
4 µg/mL: Colistin MIC −P80 ([3]; strain 2691748 (Non-MDR))
8: Fold change in MIC (−P80/+P80) ([3]; strain 2691748 (Non-MDR)) | Fold change in MIC (−P80/+P80) ([3]; strain 2694227 (MDR))
> 16 µg/mL: MIC [1, 6]

CN[C@H](CC(C)C)C(=O)N[C@H]1C(=O)N[C@@H](CC(N)=O)C(=O)N[C@H]2C(=O)N[C@H]3C(=O)N[C@H](C(=O)N[C@H](C(=O)O)c4cc(O)cc(O)c4-c4cc3ccc4O)[C@H](O[C@H]3C[C@](C)(N)[C@@H](O)[C@H](C)O3)c3ccc(c(Cl)c3)Oc3cc2cc(c3O[C@@H]2O[C@H](CO)[C@@H](O)[C@H](O)[C@H]2O[C@H]2C[C@](C)(NCc3ccc(-c4ccc(Cl)cc4)cc3)[C@@H](O)[C@H](C)O2)Oc2ccc(cc2Cl)[C@H]1O [ORI, Oritavancin]
4 µg/mL: Concentrations that yielded synergy in time-kill ([2]; strain 2691818 (Non-MDR)) | Concentrations that yielded synergy in time-kill ([2]; strain 2691999 (MDR)) | Concentrations that yielded synergy in time-kill ([2]; strain 2692406 (MDR)) | Concentrations that yielded synergy in time-kill ([2]; strain 2692650 (MDR)) | Concentrations that yielded synergy in time-kill ([2]; strain 2692721 (MDR)) | Concentrations that yielded synergy in time-kill ([2]; strain 2693922 (MDR)) | Concentrations that yielded synergy in time-kill ([2]; strain 2694038 (MDR)) | Concentrations that yielded synergy in time-kill ([2]; strain 2694224 (MDR)) | Concentrations that yielded synergy in time-kill ([2]; strain 2694227 (MDR)) | Concentrations that yielded synergy in time-kill ([2]; strain ATCC 19609 (Non-MDR))
≥ 3 log: Reduction of exponentially-growing S. aureus (rapidity of bactericidal activity) [5]
> 8 µg/mL: MIC [1] | MIC ([4]; ATCC19609, read-out: Broth macrodilution MICs)
8 µg/mL: Concentrations that yielded synergy in time-kill ([2]; strain 2691748 (Non-MDR))
>8 µg/mL: Broth macrodilution MICs [1, 6] | Broth macrodilution MICs [1, 7] | Broth macrodilution MICs [1, 8] | Broth macrodilution MICs [1, 9] | Broth macrodilution MICs [1, 10] | Broth macrodilution MICs [1, 11] | Broth macrodilution MICs [1, 12] | Broth macrodilution MICs [1, 13] | Broth macrodilution MICs [1, 14]
